Columns and labels:
[1] = biological target: T1, human FXR alpha (hFXRα)-LBD / NcoR2 peptide (Homo sapiens, UniProt Q96RI1); experiment: AlphaScreen assay, recruitment of corepressor peptide NcoR2 to His-hFXRα-LBD; type: biochemical; settings: DC646 at 11 μmol/L, Ivermectin 5 μmol/L
T1 construct: 100 nmol/L 6*His-hFXRα-LBD and 100 nmol/L biotinylated co-factor peptide
T1 sequence (Q96RI1 262-486 limits assumed): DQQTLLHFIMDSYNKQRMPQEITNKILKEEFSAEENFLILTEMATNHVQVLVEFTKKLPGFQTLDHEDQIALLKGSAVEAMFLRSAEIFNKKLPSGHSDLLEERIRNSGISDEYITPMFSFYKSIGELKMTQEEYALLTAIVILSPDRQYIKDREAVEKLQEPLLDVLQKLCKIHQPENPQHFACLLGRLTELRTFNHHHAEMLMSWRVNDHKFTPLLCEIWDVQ
Experimental: An AlphaScreen technology-based assay was performed according to the manufacturer’s instructions with a minor revision. Briefly, the experiment was conducted with compounds at the indicated concentrations, 100 nmol/L 6*His-hFXRα-LBD and 100 nmol/L biotinylated co-factor peptide in the buffer containing 50 mmol/L MOPS, 50 μmol/L CHAPS, 50 mmol/L NaF, and 0.1 mg/mL BSA, pH 7.4. The mixture was incubated with 50 μg/mL nickel acceptor beads and 50 μg/mL streptavidin donor beads in a 384-well plate under green light in the dark at room temperature, before conducting fluorescence measurement with excitation at 680 nm and emission at 550 nm on an Envision microplate analyzer (PE 2102-8340, PerkinElmer Life Sciences).

[2] = Tissue distribution (pharmacokinetic study); type: in vivo, mouse; settings: ICR mice, single oral 20 mg/kg
Experimental: Male ICR mice (6–8 weeks old, 18–22 g, Shanghai Lingchang BioTech Co., Ltd., China) were used in the pharmacokinetic study. The mice were administered with a single dose of cyclopeptide DC646 in 5% DMSO and 95% hydroxypropyl methylcellulose solution (0.5% hydroxypropyl methylcellulose in deionized water in weight ratio) (volume ratio) by oral gavage (20 mg/kg). Before the test, the mice were fasted for 12 h and were fed regularly 2 h after administration. Subsequently, 50 μL of blood was collected from the portal vein at 1, 4, 8, and 24 h in an EDTA-K2 nebulization tube. Samples were centrifuged at 12,000 rpm for 2 min to separate the plasma, which was then stored at −20°C to determine the drug concentration in the blood. After sacrifice, the livers and intestines were collected, washed with ice-cold saline, and stored at −20°C before compound measurement.

MCD diet-induced MASH = experiment: MCD diet short-term MASH model in WT and Fxr-null mice; type: in vivo, mouse; settings: oral 10 mg/kg, 2 weeks
Experimental: For the short-term MASH model, 8- to 10-week-old male C57BL/6 J or Fxr-null mice were fed with an MCD diet, combined with oral administration of vehicle or DC646 (10 mg/kg) for 2 weeks. The serum, liver, and intestine were collected 2 h after the final dosing.
(§1) The intestine and liver were frozen in liquid nitrogen and stored at −80°C. RNA was extracted, and complementary DNA was synthesized from 1 μg total RNA. RT-qPCR was performed on a Bio-Rad CFX384 Touch detection system (Bio-Rad). The primer sequences for RT-qPCR are shown in Supplementary Table S5. RNA levels were analyzed by 2-^ΔΔCt, normalized to 18S ribosomal RNA and expressed as fold change relative to the control group.
Hepatic TG and TC, and plasma ALT and AST levels were measured using commercial kits from Nanjing Jiancheng Bioengineering Institute according to the manufacturer’s instructions. To measure hepatic TG contents, liver tissues (~10 mg) were homogenized in 100 μL 1% TritonX-100 and centrifuged at 3000 rpm for 10 min. Supernatants were collected, and 2 μL samples were incubated with 200 μL reaction buffer at 37°C for 10 min. Hepatic TG or TC levels were read at 510 or 500 nm using a microplate reader (Versamax, Molecular Devices) and normalized using the protein concentration. […] The data were acquired using the kinetic mode with an interval of 30 s and 31 total reads at 340 nm using a microplate reader (Versamax, Molecular Devices).
Tissue specimens were fixed in 10% formalin for 12–24 h before being dehydrated and paraffin-embedded. The sections were stained with H&E. The NAS was calculated as a summary score including individual components of steatosis (0–3), lobular inflammation (0–3), and hepatocyte ballooning (0–2) for each liver section by a blinded liver pathologist, and the results were reviewed by a blinded hepatologist according to a previous protocol. […] At least three discontinuous liver sections were evaluated for each mouse.

[3] = test system: intestinal FXR-ceramide axis and GLP-1; experiment: HFD-fed mice, ileal FXR signaling, ceramides and serum GLP-1; type: in vivo, mouse; settings: oral 10 and 30 mg/kg
Experimental: Mice were fasted for 6 h and gavaged with a single dose of 25 mg/kg sitagliptin, followed by 2 g/kg glucose 45 min later. Blood samples were collected 15 min after glucose administration, and GLP-1 was measured using active GLP-1 kits.
as §1
For ileal lipidomics, samples were homogenized, extracted with chloroform, and prepared for analysis. Separation was achieved using an Acquity UPLC CSH C18 column, and analysis was conducted via liquid chromatography electrospray ionization tandem mass spectrometry (LC-ESI-MS/MS). Mobile phases were comprised with acetonitrile–water and isopropanol/acetonitrile solutions, both containing 10 mmol/L ammonium acetate and 0.1% formic acid.
Supplementary Figure S9 DC646 antagonizes intestinal FXR, thereby reducing ceramide production and inducing GLP-1 production. (a) Relative mRNA expression of ileal FXR signaling. (b) Ileal ceramide levels (the data are normalized and centralized). (c) Relative mRNA expression of ileal ceramide-synthesis related genes. (d) Serum GLP-1 levels. HFD-fed mice were gavaged with vehicle or 10 mg/kg or 30 mg/kg DC646. n = 8 in each group. Data are presented as the mean ± SEM and analyzed by one-way ANOVA with Dunnett’s post hoc test. ^*P < 0.05, ^**P < 0.01, and ^***P < 0.001, versus HFD + Vehicle group.

**Q.** With `CC(C)C[C@@H]1NC(=O)[C@@H]2CN(CCO2)c2cccc3c2c(cn3[Si](C(C)C)(C(C)C)C(C)C)C[C@H](NS(=O)(=O)C(F)(F)F)C(=O)OCCCCNC(=O)[C@H](CC(C)C)NC(=O)[C@@H]2CN(CCO2)c2cccc3c2c(cn3[Si](C(C)C)(C(C)C)C(C)C)C[C@H](NS(=O)(=O)C(F)(F)F)C(=O)OCCCCNC1=O` [DC646, N,N'-((1^2R,1^4S,16^2R,16^4S,4R,13R,19R,28R)-13,28-diisobutyl-5,12,15,20,27,30-hexaoxo-2^1,17^1-bis(triisopropylsilyl)-2^1H,17^1H-6,21-dioxa-11,14,26,29-tetraaza-1(4,2),16(2,4)-dimorpholina-2,17(4,3)-diindolacyclotriacontaphane-4,19-diyl)bis(1,1,1-trifluoromethanesulfonamide)] as the compound, how does the “Disruption of hFXRα-LBD-NcoR2 interaction induced by Ivermectin” value [1] read?
**A.** Its value is “competitively disrupted”.

**Q.** What about the Concentration in liver ([2]; 1 h) of the same compound?
**A.** The Concentration in liver was “BQL^$”.

**Q.** What about the Concentration in serum ([2]; 1 h) of the same compound?
**A.** The Concentration in serum was “BQL^&”.

**Q.** What about the Concentration in liver ([2]; 4 h) of the same compound?
**A.** The Concentration in liver was “BQL”.

**Q.** What about the Concentration in serum ([2]; 4 h) of the same compound?
**A.** The Concentration in serum was “BQL”.

**Q.** And the Concentration in liver ([2]; 8 h)?
**A.** Its Concentration in liver is “BQL”.

**Q.** What about the Concentration in serum ([2]; 8 h) of the same compound?
**A.** The Concentration in serum was “BQL”.

**Q.** What about the Concentration in intestine ([2]; 24 h) of the same compound?
**A.** The Concentration in intestine was “BQL^$”.

**Q.** And the Concentration in liver ([2]; 24 h)?
**A.** The Concentration in liver was “BQL”.

**Q.** And the Concentration in serum ([2]; 24 h)?
**A.** The Concentration in serum was “BQL”.

**Q.** What about the tissue level at time at 1 h ([2]; male, mouse, intestine, 1 h, read-out: Concentration in intestine) of the same compound?
**A.** The tissue level at time at 1 h was 6350 ng/g.

**Q.** What about the tissue level at time at 4 h ([2]; male, mouse, intestine, 4 h, read-out: Concentration in intestine) of the same compound?
**A.** The tissue level at time at 4 h was 435 ng/g.

**Q.** And the tissue level at time at 8 h ([2]; male, mouse, intestine, 8 h, read-out: Concentration in intestine)?
**A.** Its tissue level at time at 8 h is 72 ng/g.

**Q.** What about the “Decrease in ALT and antisteatotic effect” value (MCD diet-induced MASH; Fxr-null mice) of the same compound?
**A.** The value was “abolished”.

**Q.** And the “NAS score, steatosis” value (MCD diet-induced MASH; WT mice)?
**A.** Its value is “effectively reduced steatosis”.

**Q.** What about the “mRNA levels of intestinal FXR target genes Shp and Fgf15” value (MCD diet-induced MASH; WT mice) of the same compound?
**A.** The value was “significantly downregulated”.

**Q.** What about the “Ceramide levels in the ileum” value [3] of the same compound?
**A.** The value was “reduced”.

**Q.** What about the “Serum GLP-1 levels” value [3] of the same compound?
**A.** Its value is “markedly increased”.

**Q.** And the “FXR signaling in the ileum (mRNA levels of Shp and Fgf15)” value ([3]; dose-dependent)?
**A.** The value was “repressed”.
